The values that follow come from publication PMC10458312, “Xanthones with Potential Anti-Inflammatory and Anti-HIV Effects from the Stems and Leaves of Cratoxylum cochinchinense” (Molecules, 2023).

A short description of data set [1]: MTT cytotoxicity assay against C8166 cells. The data set is classed as cell-based. The conditions noted are these: human. Here is the method:
(§1) Anti-HIV-1 activity bioassays
50% DMF-20% SDS (100.0 μL) was added. After the formazan was dissolved completely, the
volume per well was 200.0 μL. Control assays were performed without the testing compounds in
HIV-1IIIB infected and uninfected cultures. […]
(In general: Tetrazolium dyes change colour on reduction, which living cells bring about.)

For data set [2], the system named is NO production induced by lipopolysaccharide in mouse macrophage RAW 264.7 cells. Briefly: Inhibition of NO production induced by lipopolysaccharide in RAW 264.7 cells (Griess reaction). The class given is cell-based. The conditions noted are these: RAW264.7, LPS-induced RAW 264.7 cells, 24 h, mean ± SD of triplicate determinations, read-out: IC50 (50% inhibitory concentration on NO production). (The Griess reaction detects nitrite, a stable product of nitric oxide.)

A further data set relates to HIV-1IIIB. Briefly: Inhibition assay for the cytopathic effects of HIV-1 (syncytia formation) in C8166 cells. As to conditions: for TI (therapeutic index) = CC50/EC50: CC50 in C8166 / EC50 against HIV-1; for EC50: Human immunodeficiency virus 1, C8166, 72 h, read-out: EC50 (50% effective concentration), anti-HIV-1. As to the method: All isolated xanthones 1–12 were assessed for their anti-HIV reverse transcriptase (RT) effects according to the inhibition assay for the cytopathic activities of HIV-1 (EC50) as well as the cytotoxic activities assay against C8166 cell line (CC50) according to MTT methods.
All isolated xanthones 1–12 were assessed for their anti-HIV-1 reverse transcriptase (RT) effects in vitro on the basis of the inhibition assay for the cytopathic effects of HIV-1 (EC50), in light of the protocol which is described in detail in the Supplementary Material of our current article, in which AZT (3′-azido-3′-deoxythymidine) was adopted as the positive control. All isolated xanthones 1–12 and the positive control (AZT) were also evaluated for their cytotoxic activities against C8166 cells (CC50) on the basis of the MTT method. […]
as §1
Cytotoxicity against C8166 cells (CC50) was assessed using the MTT method, and anti-HIV-1 activity was evaluated by the inhibition assay for the cytopathic effects of HIV-1 (EC50). Briefly, cells were seeded on a microtiter plate in the absence or presence of various concentrations of compounds in triplicate and incubated at 37 °C in a humid atmosphere of 5% CO2 for three days.
20.0 μL MTT reagent (5.0 mg/mL in PBS) was added to each well, then incubated at 37 °C for 4 h, 50% DMF-20% SDS (100.0 μL) was added. After the formazan was dissolved completely, the plates were read on a Bio-Tek ELx 800 ELISA reader at 595 nm/630 nm (A595/630). The cytotoxic concentration that caused the reduction of viable cells by 50% (CC50) was calculated from dose–response curve. In 100.0 μL various concentrations of compounds, C8166 cells (4×10^5/mL) were infected with virus (HIV-1IIIB) at a multiplicity of infection (M. O. I) of 0.06. The final volume per well was 200.0 μL. Control assays were performed without the testing compounds in HIV-1IIIB infected and uninfected cultures. AZT (3′-azido-3′-deoxythymidine) was used as a positive control. After three days of culture, the cytopathic effect (CPE) was measured by counting the number of syncytia (multinucleated giant cell). Percentage inhibition of syncytia formation was calculated and 50% effective concentration (EC50) was calculated. The therapeutic index (TI) was calculated from the ratio of CC50/EC50.
Background: Damage to the host cells serves as the signal in cytopathic effect assays.

Setting [3] is: C8166 cells, C8166 cell line, MTT, three days, read-out: CC50 (50% cytotoxic concentration).

Read-outs that look alike come from different tables or passages of the source.

Consider `COc1ccc2c(=O)c3c(OC)c(OC)c(O)cc3oc2c1O` [Compound 3, Cratocochinone C], for which the CC50 at 3 days in data set [1] (setting [3]) is greater than 200 µM. Moreover, the IC50 in data set [2] is 0.86 ± 0.05 µM. In addition, in the data set on HIV-1IIIB, the “TI (therapeutic index) = CC50/EC50” value is greater than 105.82 and the EC50 was found to be 1.89 µM.

In the case of `C=C(C)C(O)CCC(C)=CCc1c(O)c(CC=C(C)C)c(O)c2c(=O)c3cc(O)ccc3oc12` (stereo not shown) [Compound 1, Cratocochinone A], the CC50 at 3 days in data set [1] (setting [3]) was greater than 200 µM. In data set [2], the IC50 stood at 1.29 ± 0.06 µM. In addition, in the data set on HIV-1IIIB, the “TI (therapeutic index) = CC50/EC50” value is on record as greater than 909.09 and the EC50 was 0.22 µM.

In the case of `COc1ccc2c(=O)c3c(O)cc4c(c3oc2c1O)C(C)(C)C(CO)O4` (stereo not shown) [Compound 2, Cratocochinone B], in data set [1] (setting [3]), the CC50 at 3 days was greater than 200 µM. Also, the IC50 in data set [2] came out at 2.17 ± 0.09 µM. Also, in the data set with HIV-1IIIB, the “TI (therapeutic index) = CC50/EC50” value is listed as greater than 294.12 and the EC50 was determined as 0.68 µM.

`CC(C)=CCC/C(C)=C/Cc1c(O)c(CC=C(C)C)c(O)c2c(=O)c3c(O)ccc(O)c3oc12` [Compound 5, 1,3,5,8-tetrahydroxy-2-(3-methybut-2-enyl)-4-(3,7-dimethylocta-2,6-dienyl) xanthone]: the CC50 at 3 days in data set [1] (setting [3]) was greater than 200 µM. For the same compound, the IC50 in data set [2] was determined as 6.47 ± 0.1 µM. For the same compound, in the data set on HIV-1IIIB, the “TI (therapeutic index) = CC50/EC50” value is recorded as greater than 79.05 and the EC50 turned out to be 2.53 µM.

`COc1cc2c(c3oc4c5c(ccc4c(=O)c13)OCO5)C=CC(C)(C)O2` [Compound 8, musaxanthone]: the CC50 at 3 days in data set [1] (setting [3]) is greater than 200 µM. Moreover, in data set [2], the IC50 turned out to be 4.16 ± 0.08 µM. Further, in the data set with HIV-1IIIB, the “TI (therapeutic index) = CC50/EC50” value is reported as greater than 22.45 and the EC50 came out at 8.91 µM.

`COc1ccc2c(=O)c3cc(O)c(OC)c(O)c3oc2c1OC` [Compound 4, Cratocochinone D]: in data set [1] (setting [3]), the CC50 at 3 days was greater than 200 µM. Also, the IC50 in data set [2] worked out at 9.42 ± 0.13 µM. Moreover, in the data set with HIV-1IIIB, the “TI (therapeutic index) = CC50/EC50” value is listed as greater than 49.14 and the EC50 amounted to 4.07 µM.

On to `COc1c(O)cc2oc3cc(O)c(OC)c(OC)c3c(=O)c2c1O` [Compound 12, 1,3,6-trihydroxy-2,7,8-trimethoxy-9H-xanthen-9-one], for which, in data set [1] (setting [3]), the CC50 at 3 days is greater than 200 µM. Also, in data set [2], the IC50 was 6.21 ± 0.08 µM. Moreover, in the data set on HIV-1IIIB, the “TI (therapeutic index) = CC50/EC50” value is reported as greater than 31.50 and the EC50 is 6.35 µM.

`COc1cc(O)c2c(=O)c3c(OC)c(OC)c(O)cc3oc2c1` [Compound 10, 3,8-dihydroxy-1,2,6-trimethoxy-9H-xanthen-9-one]: the CC50 at 3 days in data set [1] (setting [3]) is greater than 200 µM. Besides, the IC50 in data set [2] worked out at 7.47 ± 0.11 µM. Moreover, in the data set with HIV-1IIIB, the “TI (therapeutic index) = CC50/EC50” value was greater than 74.91 and the EC50 was 2.67 µM.

With `CC1(C)c2c(cc(O)c3c(=O)c4ccc(O)c(O)c4oc23)O[C@H]1CO` [Compound 6, cochinchinone P], the CC50 at 3 days in data set [1] (setting [3]) is greater than 200 µM. Besides, the IC50 in data set [2] is 8.35 ± 0.15 µM. In the data set with HIV-1IIIB, the “TI (therapeutic index) = CC50/EC50” value is listed as greater than 64.94 and the EC50 was 3.08 µM.

Take `COc1c(O)cc2oc3ccc(O)c(OC)c3c(=O)c2c1OC` [Compound 9, 3,7-dihydroxy-1,2,8-trimethoxy-9H-xanthen-9-one]: the CC50 at 3 days in data set [1] (setting [3]) was greater than 200 µM. Moreover, the IC50 in data set [2] was 18.4 ± 0.21 µM. In the data set on HIV-1IIIB, the “TI (therapeutic index) = CC50/EC50” value was greater than 37.59 and the EC50 turned out to be 5.32 µM.

In turn, `Cc1cn([C@H]2C[C@H](N=[N+]=[N-])[C@@H](CO)O2)c(=O)[nH]c1=O` [AZT, 3′-azido-3′-deoxythymidine, reference compound] had a CC50 at 3 days in data set [1] of 4020 µM. Further, in the data set on HIV-1IIIB, the “TI (therapeutic index) = CC50/EC50” value is listed as 193,371.51 and the EC50 was 0.0208 µM.

Consider `C[C@]12CCC(=O)C=C1CC[C@@H]1[C@@H]2[C@@H](O)C[C@@]2(C)[C@H]1CC[C@]2(O)C(=O)CO` [Hydrocortisone, reference compound], for which the IC50 in data set [2] came out at 4.08 ± 0.08 µM.

Consider `C[C@@H]1Oc2cc(O)c3c(=O)c4cc(O)c(O)c(O)c4oc3c2C1(C)C` [Compound 7, 2-deprenyl-7-hydroxy-rheediaxanthone], for which the CC50 at 3 days in data set [1] (setting [3]) was greater than 200 µM. The IC50 in data set [2] worked out at 12.58 ± 0.12 µM. For the same compound, in the data set with HIV-1IIIB, the “TI (therapeutic index) = CC50/EC50” value is recorded as greater than 48.08 and the EC50 was 4.16 µM.

`COc1cc2oc3c(O)ccc(OC)c3c(=O)c2c(O)c1OC` [Compound 11, 1,5-dihydroxy-2,3,8-trimethoxy-9H-xanthen-9-one]: the CC50 at 3 days in data set [1] (setting [3]) was greater than 200 µM. Besides, the IC50 in data set [2] was 3.16 ± 0.09 µM. In addition, in the data set on HIV-1IIIB, the “TI (therapeutic index) = CC50/EC50” value was greater than 17.81 and the EC50 was 11.2 µM.
